{
  "source": "paper PMC10707982",
  "about": "“Solubility and Thermodynamics Data of Cabozantinib Malate in Various Aqueous Solutions of Dimethyl Sulfoxide at Different Temperatures” (Molecules, 2023)",
  "assay": "Activity coefficients (γi = xidl/xe) of CBZM",
  "type": "physicochemical",
  "excerpt": "The data for Tfus, ΔHfus, and ΔCp for CBZM were collected from Ref. [20], and they are 462.72 K, 56.93 kJ mol^−1, and 123.03 J mol^−1 K^−1, respectively. Now, Equation (2) was used to determine the xidl values for CBZM. The γi values for CBZM in all cosolvent combinations and pure solvents were obtained using Equation (3):(3) γi=xidl/xe",
  "data": [
    {"smiles": "COc1cc2nccc(Oc3ccc(NC(=O)C4(C(=O)Nc5ccc(F)cc5)CC4)cc3)c2cc1OC", "note": "[CBZM, Cabozantinib malate]", "values": [
      {"measurement": "Activity coefficient (γi)", "setting": "DMSO mass fraction m = 0.0, T = 298.2 K", "result": 6703},
      {"measurement": "Activity coefficient (γi)", "setting": "DMSO mass fraction m = 0.0, T = 303.2 K", "result": 5689},
      {"measurement": "Activity coefficient (γi)", "setting": "DMSO mass fraction m = 0.0, T = 308.2 K", "result": 5044},
      {"measurement": "Activity coefficient (γi)", "setting": "DMSO mass fraction m = 0.0, T = 313.2 K", "result": 4739},
      {"measurement": "Activity coefficient (γi)", "setting": "DMSO mass fraction m = 0.0, T = 318.2 K", "result": 4597},
      {"measurement": "Activity coefficient (γi)", "setting": "DMSO mass fraction m = 0.1, T = 298.2 K", "result": 2011},
      {"measurement": "Activity coefficient (γi)", "setting": "DMSO mass fraction m = 0.1, T = 303.2 K", "result": 1712},
      {"measurement": "Activity coefficient (γi)", "setting": "DMSO mass fraction m = 0.1, T = 308.2 K", "result": 1608},
      {"measurement": "Activity coefficient (γi)", "setting": "DMSO mass fraction m = 0.1, T = 313.2 K", "result": 1542},
      {"measurement": "Activity coefficient (γi)", "setting": "DMSO mass fraction m = 0.1, T = 318.2 K", "result": 1538},
      {"measurement": "Activity coefficient (γi)", "setting": "DMSO mass fraction m = 0.2, T = 298.2 K", "result": 605.5},
      {"measurement": "Activity coefficient (γi)", "setting": "DMSO mass fraction m = 0.2, T = 303.2 K", "result": 550.8},
      {"measurement": "Activity coefficient (γi)", "setting": "DMSO mass fraction m = 0.2, T = 308.2 K", "result": 521.3},
      {"measurement": "Activity coefficient (γi)", "setting": "DMSO mass fraction m = 0.2, T = 313.2 K", "result": 517.5},
      {"measurement": "Activity coefficient (γi)", "setting": "DMSO mass fraction m = 0.2, T = 318.2 K", "result": 518.0},
      {"measurement": "Activity coefficient (γi)", "setting": "DMSO mass fraction m = 0.3, T = 298.2 K", "result": 187.7},
      {"measurement": "Activity coefficient (γi)", "setting": "DMSO mass fraction m = 0.3, T = 303.2 K", "result": 173.5},
      {"measurement": "Activity coefficient (γi)", "setting": "DMSO mass fraction m = 0.3, T = 308.2 K", "result": 167.9},
      {"measurement": "Activity coefficient (γi)", "setting": "DMSO mass fraction m = 0.3, T = 313.2 K", "result": 169.7},
      {"measurement": "Activity coefficient (γi)", "setting": "DMSO mass fraction m = 0.3, T = 318.2 K", "result": 174.4},
      {"measurement": "Activity coefficient (γi)", "setting": "DMSO mass fraction m = 0.4, T = 298.2 K", "result": 56.40},
      {"measurement": "Activity coefficient (γi)", "setting": "DMSO mass fraction m = 0.4, T = 303.2 K", "result": 55.14},
      {"measurement": "Activity coefficient (γi)", "setting": "DMSO mass fraction m = 0.4, T = 308.2 K", "result": 55.29},
      {"measurement": "Activity coefficient (γi)", "setting": "DMSO mass fraction m = 0.4, T = 313.2 K", "result": 56.55},
      {"measurement": "Activity coefficient (γi)", "setting": "DMSO mass fraction m = 0.4, T = 318.2 K", "result": 59.49},
      {"measurement": "Activity coefficient (γi)", "setting": "DMSO mass fraction m = 0.5, T = 298.2 K", "result": 17.42},
      {"measurement": "Activity coefficient (γi)", "setting": "DMSO mass fraction m = 0.5, T = 303.2 K", "result": 17.07},
      {"measurement": "Activity coefficient (γi)", "setting": "DMSO mass fraction m = 0.5, T = 308.2 K", "result": 17.69},
      {"measurement": "Activity coefficient (γi)", "setting": "DMSO mass fraction m = 0.5, T = 313.2 K", "result": 18.40},
      {"measurement": "Activity coefficient (γi)", "setting": "DMSO mass fraction m = 0.5, T = 318.2 K", "result": 19.80},
      {"measurement": "Activity coefficient (γi)", "setting": "DMSO mass fraction m = 0.6, T = 298.2 K", "result": 5.281},
      {"measurement": "Activity coefficient (γi)", "setting": "DMSO mass fraction m = 0.6, T = 303.2 K", "result": 5.524},
      {"measurement": "Activity coefficient (γi)", "setting": "DMSO mass fraction m = 0.6, T = 308.2 K", "result": 5.800},
      {"measurement": "Activity coefficient (γi)", "setting": "DMSO mass fraction m = 0.6, T = 313.2 K", "result": 6.266},
      {"measurement": "Activity coefficient (γi)", "setting": "DMSO mass fraction m = 0.6, T = 318.2 K", "result": 6.776},
      {"measurement": "Activity coefficient (γi)", "setting": "DMSO mass fraction m = 0.7, T = 298.2 K", "result": 1.609},
      {"measurement": "Activity coefficient (γi)", "setting": "DMSO mass fraction m = 0.7, T = 303.2 K", "result": 1.699},
      {"measurement": "Activity coefficient (γi)", "setting": "DMSO mass fraction m = 0.7, T = 308.2 K", "result": 1.853},
      {"measurement": "Activity coefficient (γi)", "setting": "DMSO mass fraction m = 0.7, T = 313.2 K", "result": 2.023},
      {"measurement": "Activity coefficient (γi)", "setting": "DMSO mass fraction m = 0.7, T = 318.2 K", "result": 2.267},
      {"measurement": "Activity coefficient (γi)", "setting": "DMSO mass fraction m = 0.8, T = 298.2 K", "result": 0.4851},
      {"measurement": "Activity coefficient (γi)", "setting": "DMSO mass fraction m = 0.8, T = 303.2 K", "result": 0.5430},
      {"measurement": "Activity coefficient (γi)", "setting": "DMSO mass fraction m = 0.8, T = 308.2 K", "result": 0.6120},
      {"measurement": "Activity coefficient (γi)", "setting": "DMSO mass fraction m = 0.8, T = 313.2 K", "result": 0.6808},
      {"measurement": "Activity coefficient (γi)", "setting": "DMSO mass fraction m = 0.8, T = 318.2 K", "result": 0.7771},
      {"measurement": "Activity coefficient (γi)", "setting": "DMSO mass fraction m = 0.9, T = 298.2 K", "result": 0.1392},
      {"measurement": "Activity coefficient (γi)", "setting": "DMSO mass fraction m = 0.9, T = 303.2 K", "result": 0.1658},
      {"measurement": "Activity coefficient (γi)", "setting": "DMSO mass fraction m = 0.9, T = 308.2 K", "result": 0.1932},
      {"measurement": "Activity coefficient (γi)", "setting": "DMSO mass fraction m = 0.9, T = 313.2 K", "result": 0.2245},
      {"measurement": "Activity coefficient (γi)", "setting": "DMSO mass fraction m = 0.9, T = 318.2 K", "result": 0.2572},
      {"measurement": "Activity coefficient (γi)", "setting": "DMSO mass fraction m = 1.0, T = 298.2 K", "result": 0.0455},
      {"measurement": "Activity coefficient (γi)", "setting": "DMSO mass fraction m = 1.0, T = 303.2 K", "result": 0.0547},
      {"measurement": "Activity coefficient (γi)", "setting": "DMSO mass fraction m = 1.0, T = 308.2 K", "result": 0.0646},
      {"measurement": "Activity coefficient (γi)", "setting": "DMSO mass fraction m = 1.0, T = 313.2 K", "result": 0.0771},
      {"measurement": "Activity coefficient (γi)", "setting": "DMSO mass fraction m = 1.0, T = 318.2 K", "result": 0.0894}
    ]}
  ]
}
